Structures can show the parent of a compound that is named as a salt.
Tested on: conscious rats
Assay: Determination of CNS toxicity: convulsions in conscious rats under intravenous infusion
Conditions: Table 5, comparative example compounds; for cum conv dose: total amount of drug infused when convulsions are first observed; for convulsion dose: minimum iv infusion rate at which partial or complete convulsions are observed

Row | SMILES | cum conv dose [µmol/kg] | convulsion dose [µmol/kg/min]
1 | Brc1ccc(OCCO[C@H]2CCCCC2N2CCOCC2)cc1 (stereo partly drawn) [Comparative Example Compound 34, (1R,2R)/(1S,2S)-[2-(4-morpholinyl)-1-[2-(4-bromophenoxy)-ethoxy]]cyclohexane] | 83 | –
2 | CC(=O)OC1CCN([C@@H]2CCCCC2OCCc2cccc3ccccc23)C1.Cl (stereo partly drawn) [Comparative Example Compound 43, (1R,2R)/(1S,2S)-2-(3-acetoxypyrrolidinyl)-1-(1-naphthenethoxy)cyclo-hexane monohydrochloride] | 65 | 8
3 | COc1ccc(CCO[C@H]2CCCCC2N2CCOCC2)cc1OC (stereo partly drawn) [Comparative Example Compound 35, (1R,2R)/(1S,2S)-[2-(4-morpholinyl)-1-(3,4-dimethoxy-phenethoxy)]-cyclohexane] | – | 16
4 | Cl.OC1CCN(C2CCCC[C@@H]2OCCc2c(Cl)cccc2Cl)C1 (stereo partly drawn) [Comparative Example Compound 46, (1R,2R)/(1S,2S)-2-(3-hydroxypyrrolidinyl)-1-(2,6-dichlorophenethoxy)cyclo-hexane monohydrochloride] | – | 8
5 | Cl.O[C@@H]1CCN(C2CCCC[C@@H]2OCCc2ccccc2C(F)(F)F)C1 (some centres unmarked) [Comparative Example Compound 27] | – | 16
6 | Cl.O=C1CCN(C2CCCC[C@@H]2OCCc2c(Cl)cccc2Cl)C1 (stereo partly drawn) [Comparative Example Compound 41, (1R,2R)/(1S,2S)-2-(3-ketopyrrolidinyl)-1-(2,6-dichlorophenethoxy)cyclo-hexane monohydrochloride] | 190 | 32
7 | COc1ccc(CCOC2CCCC[C@H]2N2CCN(C(=O)Cc3ccc(OC)c(OC)c3)CC2)cc1OC.Cl.Cl (stereo partly drawn) [Comparative Example Compound 22, 1-[(3,4-dimethoxyphenyl)acetyl]-4-{(1R,2R)/(1S,2S)-2-[2-(3,4-dimethoxyphenyl)-ethoxy]cyclohexyl}-piperazine hydrochloride] | 133 | 21.33
8 | c1cc(CCO[C@H]2CCCCC2N2CCOCC2)c2ccsc2c1 (some centres unmarked) [Comparative Example Compound 37] | 54 | 8
9 | Cl.OC1CCN(C2CCCC[C@@H]2OCCn2ccc3ccccc32)C1 (some centres unmarked) [Comparative Example Compound 28] | – | 16
10 | c1ccc2cc(CCO[C@H]3CCCCC3N3CCOCC3)ccc2c1 (stereo partly drawn) [Comparative Example Compound 30, (1R,2R)/(1S,2S)-[2-(4-morpholinyl)-1-(2-naphihenethoxy)]-cyclohexane monohydrochloride] | 85 | –
11 | Cl.O=C1CCN(C2CCCC[C@@H]2OCC(c2ccccc2)c2ccccc2)C1 (stereo partly drawn) [Comparative Example Compound 47, (1R,2R)/(1S,2S)-2-(3-ketopyrrolidinyl)-1-(2,2-diphenylethoxy)cyclo-hexane monohydrochloride] | – | 21
12 | COc1ccc(CCO[C@H]2CCCCC2N2CCCC2)cc1OC (some centres unmarked) [Comparative Example Compound 17, monohydrochloride] | 118 | 21.33
13 | Cl.FC(F)(F)c1ccccc1CCO[C@H]1CCCC[C@H]1N1CCOCC1 (racemic) [Comparative Example Compound 42, (1R,2S)/(1S,2R)-2-(4-morpholinyl)-1-[(2-trifluoromethyl)-phenethoxy]-cyclohexane monohydrochloride] | – | 16
14 | Clc1ccc(CCO[C@H]2CCCCC2N2CCOCC2)cc1Cl (stereo partly drawn) [Comparative Example Compound 40, (1R,2R)/(1S,2S)-2-(4-morpholinyl)-1-(3,4-dichlorophenethoxy)cyclo-hexane] | – | 16
15 | c1ccc2cc(OCCO[C@H]3CCCCC3N3CCOCC3)ccc2c1 (stereo partly drawn) [Comparative Example Compound 33, (1R,2R)/(1S,2S)-[2-(4-morpholinyl)-1-[2-(2-naphthoxy)ethoxy]]-cyclohexane] | – | 8
16 | Cl.OC1CCN(C2CCCC[C@@H]2OCCc2ccccc2Br)C1 (stereo partly drawn) [Comparative Example Compound 24, (3R)/(3S)-1-{(1R,2R)/(1S,2S)-2-[2-(2-bromophenyl)-ethoxy]cyclohexyl}-pyrrolidin-3-ol hydrochloride] | 67 | 13
17 | Brc1ccc(CCO[C@H]2CCCCC2N2CCOCC2)cc1 (some centres unmarked) [Comparative Example Compound 32] | 91 | 12
18 | Cl.OC1CCN(C2CCCC[C@@H]2OCCc2c(Cl)cccc2Cl)C1 (stereo partly drawn) [Comparative Example Compound 23, (3R)/(3S)-1-{(1R,2R)/(1S,2S)-2-[2-(2,6-dichlorophenyl)-ethoxy]cyclohexyl}-pyrrolidin-3-ol hydrochloride] | 65 | 8
19 | Cl.Clc1cccc(Cl)c1CCOC1CCCC[C@H]1N1CCSC1 (stereo partly drawn) [Comparative Example Compound 48, (1R,2R)/(1S,2S)-2-(3-thiazolidinyl)-1-(2,6-dichlorophenethoxy)cyclo-hexane monohydrochloride] | – | 43
20 | c1ccc2c(CCO[C@H]3CCCCC3N3CCOCC3)cccc2c1 (stereo partly drawn) [Comparative Example Compound 31, (1R,2R)/(1S,2S)-[2-(4-morpholinyl)-1-(1-naphthenethoxy)]-cyclohexane] | 93 | 16
21 | Cl.O=C1CCN([C@@H]2CCCCC2OCc2c(Cl)cccc2Cl)C1 (stereo partly drawn) [Comparative Example Compound 45, (1R,2R)/(1S,2S)-2-(3-ketopyrrolidinyl)-1-[(2,6-dichlorophenyl)methoxy]-cyclohexane monohydrochloride] | – | 32
22 | Brc1cccc(CCO[C@H]2CCCCC2N2CCOCC2)c1 (stereo partly drawn) [Comparative Example Compound 38, (1R,2R)/(1S,2S)-[2-(4-morpholinyl)-1-(3-bromophenethoxy)]-cyclohexane] | – | 16
23 | Cl.OC1CCN([C@@H]2CCCC[C@@H]2OCCc2cccc3ccccc23)C1 (stereo partly drawn) [Comparative Example Compound 25, (3R)/(3S)-1-{(1R,2S)/(1S,2R)-2-[2-(1-naphthyl)ethoxy]-cyclohexyl}-pyrrolidin-3-ol hydrochloride] | 70 | 16
24 | c1ccc2c(CCO[C@H]3CCCCC3N3CCOCC3)csc2c1 (some centres unmarked) [Comparative Example Compound 36] | 65 | 8
25 | Cl.OC1CCN(C2CCCC[C@@H]2OCCc2cccc3ccccc23)C1 (stereo partly drawn) [Comparative Example Compound 26, (3R)/(3S)-1-{(1R,2R)/(1S,2S)-2-[2-(1-naphthyl)ethoxy]-cyclohexyl}-pyrrolidin-3-ol hydrochloride] | – | 8
26 | Cl.Clc1cccc(Cl)c1CCO[C@@H]1CCCC[C@H]1N1CCSC1 [Comparative Example Compound 48, (1R,2R)/(1S,2S)-2-(3-thiazolidinyl)-1-(2,6-dichlorophenethoxy)cyclo-hexane monohydrochloride] | 44.4 | 8

Reference: patent US20070197632A1, “Aminocyclohexyl ether compounds and uses thereof” (Cardiome Pharma Corp, priority 2003, published 2007)
